Laboratory results: ChEMBL document CHEMBL3507680, “University of Dundee, Gates Library screen for HepG2 cell viability”

Experiment: Human HepG2 cell viability assay in 384 well format
Type: toxicity, cell-based
Design: dose 125 nL, time 70.5 hour; cytotoxicity at 70.5 h: concentration not given beside the values
Conditions: HepG2 cells, read-out: Inhibition

Q: Which cytotoxicity at 70.5 h does the source give for `Cc1nc(NC2(CN3CCCCC3)CCCCC2)c2cnn(C)c2n1` here?
A: -18.3%

Q: Which cytotoxicity at 70.5 h does the source give for `CCc1nc(C)c(CNC(=O)CCCN2CCCCC2)s1` here?
A: -1.08%

Q: For `CC(NC(=O)c1cc(=O)n(C)c(=O)n1C)c1ccccc1-n1cccn1` (stereo not given), which cytotoxicity at 70.5 h is on record?
A: 4.9%

Q: For `CSCC(=O)N[C@H]1CC[C@H](Nc2nccc(-c3ccncc3)n2)C1`, which cytotoxicity at 70.5 h is on record?
A: -0.057%

Q: For `CCc1nn(C)c(Cl)c1CN1CCN(c2ccc(C(N)=O)cn2)CC1`, which cytotoxicity at 70.5 h is on record?
A: -8.09%

Q: For `CNC(=O)CC1COCCN1C(=O)C1(c2ccc(Cl)cc2)CCC1` (stereo not given), which cytotoxicity at 70.5 h is on record?
A: 7.35%

Q: Which cytotoxicity at 70.5 h does the source give for `CCSc1ncc(CN2CCN(c3ccc(C#N)cc3)C(=O)C2)cn1` here?
A: -8.4%

Q: With `O=C(c1ccc2occc2c1)N1CCC(C(=O)O)(n2cccn2)CC1` as the molecule, how does the cytotoxicity at 70.5 h read?
A: -4.27%

Q: Which cytotoxicity at 70.5 h does the source give for `CN(C)CCn1ccnc1C1CCCN(c2cc(N)ncn2)C1` (stereo not given) here?
A: 23.6%

Q: For `Cn1c(CCC(=O)N2CCC3(CCCO3)CC2)nc2cccnc21`, which cytotoxicity at 70.5 h is on record?
A: -9.63%

Q: For `c1ccc(COCCN2CCc3[nH]cnc3C2c2ccco2)cc1` (stereo not given), which cytotoxicity at 70.5 h is on record?
A: -4.41%

Q: Which cytotoxicity at 70.5 h does the source give for `Cc1ccc([C@@H]2CN(C(=O)c3ccoc3C)C[C@H]2NC(=O)C2CC2)cc1` here?
A: 30.5%

Q: Which cytotoxicity at 70.5 h does the source give for `Cc1ccc(CN2CC[C@@H](NC(=O)c3cccnc3)[C@H](O)C2)s1` here?
A: -10.7%

Q: Which cytotoxicity at 70.5 h does the source give for `Cc1cccc(-c2ncc(CNC(C)CO)cn2)c1` (stereo not given) here?
A: 27.8%

Q: With `CCn1c(C2CCNCC2)nn(Cc2ccc(C(=O)NC)o2)c1=O` as the molecule, how does the cytotoxicity at 70.5 h read?
A: -12.2%

Q: For `CCC(NC1CCN(S(C)(=O)=O)CC1)c1cccs1` (stereo not given), which cytotoxicity at 70.5 h is on record?
A: -15.6%

Q: For `Cc1cnc(C(=O)N2CCCC(Cn3cc(CC(C)C)nn3)C2)cn1` (stereo not given), which cytotoxicity at 70.5 h is on record?
A: -8.09%

Q: Which cytotoxicity at 70.5 h does the source give for `Cc1cnccc1CN(C)C(=O)c1ccc(Cn2cnnn2)cc1` here?
A: 37.3%

Q: Which cytotoxicity at 70.5 h does the source give for `Nc1ccc(C(=O)N2CCCC(c3nccn3Cc3cscn3)C2)cn1` (stereo not given) here?
A: -3.06%

Q: With `CCC(CO)N(Cc1ccccn1)C(=O)c1ccc(=O)[nH]c1` (stereo not given) as the molecule, how does the cytotoxicity at 70.5 h read?
A: -4.96%

Q: For `CCn1c(CN2CCCC2)nnc1C1CCN(Cc2ccccn2)CC1`, which cytotoxicity at 70.5 h is on record?
A: 18.4%

Q: With `CCC[C@@H]1CN(c2ncnc3sccc23)C[C@H]1C(=O)O` as the molecule, how does the cytotoxicity at 70.5 h read?
A: -5.95%

Q: For `COCc1cc(N(C)Cc2cc(C(C)(C)C)n[nH]2)ncn1`, which cytotoxicity at 70.5 h is on record?
A: -7.91%

Q: For `Cc1ccc(C(NC(=O)CCCN2CCCCC2)C(=O)O)cc1` (stereo not given), which cytotoxicity at 70.5 h is on record?
A: -12.7%

Q: For `Cc1cc(C)c(Cn2cncn2)cc1CN1CC[C@H](CO)[C@@H](O)C1`, which cytotoxicity at 70.5 h is on record?
A: 6.21%

Q: With `COCCN1C[C@H]2CC[C@@H]1CN(C(=O)CCc1c(C)nn(C)c1C)C2` as the molecule, how does the cytotoxicity at 70.5 h read?
A: -3.68%

Q: For `CC(=O)c1cc(C(=O)N2CCC(CC(C)C)C2)c(=O)[nH]c1C` (stereo not given), which cytotoxicity at 70.5 h is on record?
A: -12.6%

Q: For `Cc1nc2c(c(N[C@@H](CO)C(N)=O)n1)Cc1ccccc1OC2`, which cytotoxicity at 70.5 h is on record?
A: -9.03%

Q: With `CC(=O)c1cccc(CN2CC(Oc3ccccc3C)C2)c1` as the molecule, how does the cytotoxicity at 70.5 h read?
A: -3.39%

Q: For `Cc1cc(C)n(CCCN(CCN2CCOCC2)Cc2ccco2)n1`, which cytotoxicity at 70.5 h is on record?
A: -4.4%

Q: Which cytotoxicity at 70.5 h does the source give for `CNC(=O)[C@@H]1C[C@H](n2cc(-c3ccc(CN4CC=CC4)cc3)nn2)CN1` here?
A: 27%

Q: For `O=C1CCC2(CCN(c3cccc(C(F)(F)F)n3)CC2)CN1CCO`, which cytotoxicity at 70.5 h is on record?
A: -5.14%

Q: Which cytotoxicity at 70.5 h does the source give for `O=C1CCCN1C1CCCN(CCOc2ccc(F)cc2)C1` (stereo not given) here?
A: -6.91%

Q: With `CC(C)CN(Cc1ccsc1)C(=O)CCCn1cncn1` as the molecule, how does the cytotoxicity at 70.5 h read?
A: -0.11%

Q: With `CCOC(=O)C1CCCCN1Cc1c[nH]nc1-c1cc2ccccc2o1` (stereo not given) as the molecule, how does the cytotoxicity at 70.5 h read?
A: -7.32%

Q: For `CN1CSC[C@H]1C(=O)N1CCC(CCc2ccccc2)CC1`, which cytotoxicity at 70.5 h is on record?
A: -5.84%

Q: With `Cn1c(N2CC[C@H](O)C2)nc2cc(C(N)=O)ccc21` as the molecule, how does the cytotoxicity at 70.5 h read?
A: 5.31%

Q: For `Cc1cc(C)c2[nH]c(=O)c(CN3CCC(O)(CN(C)C)C3)cc2c1` (stereo not given), which cytotoxicity at 70.5 h is on record?
A: -15.6%

Q: With `Cc1nc(CCN2CCCCC2)n(-c2ccc(F)cc2)n1` as the molecule, how does the cytotoxicity at 70.5 h read?
A: 16.5%

Q: With `CCOCCc1nc(CCc2ccccc2)n[nH]1` as the molecule, how does the cytotoxicity at 70.5 h read?
A: -6.03%

Q: For `Cc1ccc(C(=O)NCCC2CN(c3cnn(C)c(=O)c3)CCO2)s1` (stereo not given), which cytotoxicity at 70.5 h is on record?
A: -3.44%

Q: For `CCc1ccc(C(=O)N2CC[C@](C)(O)[C@H](C)C2)[nH]1`, which cytotoxicity at 70.5 h is on record?
A: -7.19%

Q: For `CCOC(=O)CNC(=O)N1CCOC(CCc2ccccc2)C1` (stereo not given), which cytotoxicity at 70.5 h is on record?
A: 15.8%

Q: For `CN(CCCN1CCOCC1)[C@@H]1c2ccccc2C2(CCNCC2)[C@H]1O`, which cytotoxicity at 70.5 h is on record?
A: -7.93%

Q: For `Cc1cn2cc(C(=O)NC3CCCN(c4ncccn4)C3)ccc2n1` (stereo not given), which cytotoxicity at 70.5 h is on record?
A: 1.08%

Q: Which cytotoxicity at 70.5 h does the source give for `CCN1CC(CN(C)Cc2nc(-c3ccc(F)cc3)oc2C)CC1=O` (stereo not given) here?
A: 4.29%

Q: For `Cc1cc2[nH]c(=O)oc2cc1S(=O)(=O)N1CCC(N2CCCC2=O)CC1`, which cytotoxicity at 70.5 h is on record?
A: -9.07%

Q: With `Cc1nonc1CC(=O)N1CCC2(CCCN(C3CCOCC3)C2=O)C1` (stereo not given) as the molecule, how does the cytotoxicity at 70.5 h read?
A: -5.27%

Q: With `O=C(NN1CCCc2ccccc21)c1c[nH]c(=O)[nH]1` as the molecule, how does the cytotoxicity at 70.5 h read?
A: -7.94%

Q: For `COc1cccc(C(=O)N(C)C(C)c2c(C)n[nH]c2C)c1OC` (stereo not given), which cytotoxicity at 70.5 h is on record?
A: -5.83%

Q: For `CCc1nccn1CCCNc1nccc(-c2c(C)nn(C)c2C)n1`, which cytotoxicity at 70.5 h is on record?
A: -16.7%

Q: For `Cc1cnccc1CN(C)Cc1c[nH]nc1-c1ccc(F)cc1F`, which cytotoxicity at 70.5 h is on record?
A: 3.5%

Q: With `O=C(COc1ccc(F)cc1F)N1CCOCC(O)(CN2CCCC2)C1` (stereo not given) as the molecule, how does the cytotoxicity at 70.5 h read?
A: -2.46%

Q: With `CC1CN(c2ccccc2Cl)C(=O)CN1C(=O)c1c[nH]c(=O)c(Cl)c1` (stereo not given) as the molecule, how does the cytotoxicity at 70.5 h read?
A: -0.811%

Q: For `Cc1noc(C)c1CN1C[C@@H](C(=O)O)[C@H](c2ccccc2)C1`, which cytotoxicity at 70.5 h is on record?
A: -5.34%
